Experimental findings from US20060257432A1, “Pharmaceutical formulations of xanthogenates and inhibitors of viral nucelic acid replication” (priority 2003, published 2006) are described below.

In test [1] the test system is herpes simplex virus (Type-1, strain ANG). As to the kind of experiment: Plaque formation of herpes simplex virus in Calu-6 cells. The class given is cell-based. As to conditions: for number of plaques: Calu-6 cells, 48 h. The procedure: Human lung carcinoma cells (Calu-6) were infected with 30 plaque-forming units of herpes simplex virus (Type-1, strain ANG) in Linbro plates. Cell culture medium (MEM containing 10% fetal calf serum, 0.85 g/l sodium bicarbonate, and 0.5% carboxymethylcellulose) containing either 0, 5 or 10 μg/ml exo/exo-tricyclo[5,2,1,0^2,6]-9yl-xanthogenate (D609) was added two hours after infection. The cultures were treated with aciclovir at the same time. All samples were processed as quadruplicates. The cells were incubated for 48 h at 37° C. under CO2 gassing (5%). Then the medium was decanted, the cells were fixed with 3% formalin and stained with 0.5% crystal violet. After drying at room temperature, the number of plaques formed was determined.

The test system of the next test is HSV-1 (Wal strain). Kind of test: Experimental skin infection of mice with HSV-1, ointment treatment. To be noted: HSV-1-infected Balb-C mice, 5% ointment twice daily from day 4 after infection; for survival: 14 days, placebo: 3 of 10 survived. The class given is in vivo, mice (Balb-C strain). On the procedure: One part (by weight) D609, one part (by weight) potassium salt of decanoic acid, and four parts (by weight) cholesterol were mixed in a mortar. Subsequently, propyleneglycol (final concentration 10%) and vaseline were added such that the final concentration of D609 was 5%. The same procedure was used to produce ointments containing 5% aciclovir or 5% D609 and 5% aciclovir. A placebo ointment containing neither of the two agents was produced using the analogous procedure.
Ten mice (Balb-C strain) each were shaved on their upper leg and six scratches in the skin were made with a cannula in an area of 5×5 mm. Subsequently, a cotton bud was used to apply 50 μl of a HSV-1 suspension (Wal strain, 10^8 plaque-forming units/ml). The treatment (twice daily) was initiated four days after infection. The symptoms, “widespread lesions”, “hind leg paralysis”, and survival were recorded in the protocol.
The result is shown graphically in FIGS. 2a to 2d. […] Triangles indicate the surviving animals in each case, squares the animals with hind leg paralysis, and diamonds the animals with widespread lesions.

Regarding `S=C(S)OC1CC2CC1C1CCCC21` (stereo not drawn) [D609, exo/exo-tricyclo[5,2,1,0^2,6]-9yl-xanthogenate], the number of plaques in test [1] (5 μg/ml D609 alone, no-D609 control 32.75±11) was determined as 32±3; in test [1] (10 μg/ml D609 alone, no-D609 control 32.75±11) it was 33±6. Besides, in test [1] (D609 alone at 5 or 10 μg/ml), the “effect on plaque formation” value is reported as “no effect”. In addition, in the test on HSV-1 (Wal strain), the “healing of lesions and paralysis” value is on record as “almost completely healed”. Further, the survival entry with HSV-1 (Wal strain) is “survival rate higher”.
As for `Nc1nc2c(ncn2COCCO)c(=O)[nH]1` [aciclovir], the number of plaques in test [1] (aciclovir 0.16 μM alone, not statistically significant (p=0.4)) is recorded as 30±11. Further, the “increase of the effect of aciclovir in cell culture” value in test [1] (in the presence of low, antivirally ineffective concentrations of the xanthogenate) is given as “increased up to five-fold”. Also, in the test on HSV-1 (Wal strain), the “healing of lesions and paralysis” value was “almost completely healed”; the survival entry is listed as “survival rate higher”.
